For 63 molecules, EC50 results are on record in BindingDB's records for doi:10.7270/Q2TX3CTT (Broad Institute, 2010).

By EC50 is commonly meant the concentration needed to bring the measured effect to its halfway point.

In this test the target is Glycogen synthase kinase-3 beta (Homo sapiens, UniProt P49841). Nature of the test: GSK3beta kinase inhibitor potency, dose response, biochemical, luminescence, cell-free homogeneous, retest (AID 434954).
Chain of Glycogen synthase kinase-3 beta (P49841 whole entry): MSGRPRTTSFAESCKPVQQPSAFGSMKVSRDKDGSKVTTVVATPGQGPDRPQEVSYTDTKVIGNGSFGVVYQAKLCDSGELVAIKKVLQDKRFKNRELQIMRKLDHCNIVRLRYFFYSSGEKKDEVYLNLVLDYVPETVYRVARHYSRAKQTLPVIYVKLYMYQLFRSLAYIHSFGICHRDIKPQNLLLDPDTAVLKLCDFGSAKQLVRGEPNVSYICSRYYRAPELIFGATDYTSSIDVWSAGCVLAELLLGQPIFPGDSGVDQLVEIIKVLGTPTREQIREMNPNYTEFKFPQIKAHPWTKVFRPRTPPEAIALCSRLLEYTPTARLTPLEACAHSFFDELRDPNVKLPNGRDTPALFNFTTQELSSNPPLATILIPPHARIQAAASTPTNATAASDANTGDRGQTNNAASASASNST
Take `Cc1ccc(S(=O)(=O)CC(=O)c2cc3cccc(C)c3oc2=O)cc1` [8-methyl-3-[2-(4-methylphenyl)sulfonyl-1-oxoethyl]-1-benzopyran-2-one]: the EC50 is > 300 µM. For `CCSc1nnc(NC(=O)CSc2nnc(CNC(=O)c3cc(OC)c(OC)c(OC)c3)o2)s1` [N-[[5-[2-[(5-ethylsulfanyl-1,3,4-thiadiazol-2-yl)amino]-2-oxoethyl]sulfanyl-1,3,4-oxadiazol-2-yl]methyl]-3,4,5-trimethoxybenzamide] the value was > 300 µM.

As for `O=c1oc(-c2cccs2)nc2sc3c(c12)CCCC3` [SMR000116853], the EC50 is > 300 µM. As for `O=C(CN(Cc1cccs1)C(=O)CCC(=O)Nc1nccs1)NCc1ccccc1` [MLS000551058], the EC50 is > 300 µM. For `COc1cc2c(cc1OC)C(C)N(C(=O)c1ccc(Br)o1)CC2` (stereo not drawn) [SMR000269781] the value was > 300 µM; for `COc1ccc(Nc2nc(N)c([N+](=O)[O-])c(N3CCOCC3)n2)cc1` [SMR000434818], 13.8 µM; for `COc1ccc(NC(=O)c2ccc(-c3ccc(OC)cc3)s2)cc1` [SMR000335035], > 300 µM. For `CCc1cc(=O)oc2cc(C)cc(O)c12` [4-ethyl-5-hydroxy-7-methyl-1-benzopyran-2-one], the concentration for a half-maximal effect (EC50) is > 300 µM. For `O=C1CN=C(c2cccs2)c2c(sc3c2CCCC3)N1` [5-Thiophen-2-yl-1,2,3,4,7,9-hexahydro-10-thia-6,9-diaza-benzo[a]azulen-8-one] the value was 3.09 µM; for `CCOC(=O)c1cnc2ccc(C(=O)OC)cc2c1Nc1ccc2c(c1)OCCO2` [4-(2,3-Dihydro-benzo[1,4]dioxin-6-ylamino)-quinoline-3,6-dicarboxylic acid 3-ethyl ester 6-methyl ester], 9.12 µM; for `O=c1cc(-c2ccc(O)c(O)c2)oc2cc(O)cc(O)c12` [2-(3,4-dihydroxyphenyl)-5,7-dihydroxy-4H-chromen-4-one], 3.81 µM. With `COc1cccc2cc(C(=O)NCc3ccc(C)cc3)c(=N)oc12`, the EC50 was > 300 µM. For the molecule `Cc1ccc(C(=O)NN=C2CCCc3ccccc32)c(C)c1` [MLS001005817], the EC50 is > 300 µM. As for `COc1ccc(C2C(C(C)=O)C(=O)C(=O)N2c2nccs2)c(OC)c1` (stereo not drawn) [3-acetyl-2-(2,4-dimethoxyphenyl)-4-hydroxy-1-(1,3-thiazol-2-yl)-2H-pyrrol-5-one], the figure is > 300 µM; as for `C[C@H]1CCCC(=O)CCCC=Cc2cc(O)cc(O)c2C(=O)O1` [(11S)-11-methyl-15,17-bis(oxidanyl)-12-oxabicyclo[12.4.0]octadeca-1(18),2,14,16-tetraene-7,13-dione], 5.45 µM. With `O=[N+]([O-])c1cc(/C=N/n2cnnc2)ccc1N1CCCC1` [1-[3-nitro-4-(1-pyrrolidinyl)phenyl]-N-(1,2,4-triazol-4-yl)methanimine], the EC50 was > 300 µM. As for `Cc1ccc(N2CCN(C(=O)N3CCOCC3)CC2)c(C)c1` [[4-(2,4-dimethylphenyl)piperazin-1-yl]-morpholin-4-ylmethanone], the figure is > 300 µM; as for `COC(=O)c1ccc(CSc2ccc3nnc(-c4ccc(F)cc4)n3n2)o1` [5-[[[3-(4-fluorophenyl)-[1,2,4]triazolo[4,3-b]pyridazin-6-yl]thio]methyl]-2-furancarboxylic acid methyl ester], 4.59 µM; as for `COCCn1c(SCC(=O)Nc2ccccc2OC)nc2ccccc21` [SMR000377677], > 300 µM.

For `CC(NC(=O)/C=C/c1ccco1)c1nc2ccccc2n1Cc1ccccc1F` (stereo not drawn), the 50% effective concentration (EC50) is > 300 µM. For the molecule `OC(c1ccccc1)c1ccncc1` (stereo not drawn) [phenyl(pyridin-4-yl)methanol], the EC50 is > 300 µM.

As for `N#CC(C#N)=Cc1cc2ccccc2nc1N1CCOCC1` [2-[(2-morpholin-4-ylquinolin-3-yl)methylidene]propanedinitrile], the EC50 was > 300 µM. Consider `N#CCCn1cc(CN=O)c(-c2ccc(-c3ccccc3)cc2)n1` [3-[4-(hydroxyiminomethyl)-3-(4-phenylphenyl)pyrazol-1-yl]propanenitrile], for which the EC50 is > 300 µM. Regarding `N#Cc1c(N)nc2c(c1N)=C(N)SC1=NC(=O)CC(c3ccccc3)C=21` (stereo not drawn) [SMR000147833], the EC50 was > 300 µM.

Regarding `CCOC(=O)CC(=O)CSc1ccc2nnc(-c3ccc(F)cc3)n2n1` [ethyl 4-{[3-(4-fluorophenyl)[1,2,4]triazolo[4,3-b]pyridazin-6-yl]thio}-3-oxobutanoate], the EC50 amounted to 83.8 µM. In the case of `CCCn1nc(NC(=O)CC(C)C)c2cc3ccccc3nc21` [SMR000043522], the EC50 was > 300 µM.

On to `COCC(C)n1c(C)cc(C(=O)COC(=O)c2ccc3c(c2)NC(=O)CS3)c1C` (stereo not drawn), for which the EC50 was > 300 µM. As for `Cc1ccc(S(=O)(=O)NN=Cc2cn(-c3ccccc3)nc2-c2ccccc2)cc1` [N-[(1,3-diphenylpyrazol-4-yl)methylideneamino]-4-methylbenzenesulfonamide], the figure is > 300 µM. As for `O=C(NCC(c1ccco1)N1CCc2ccccc21)c1cccc([N+](=O)[O-])c1` (stereo not drawn) [SMR000811914], the EC50 was > 300 µM. As for `Cc1ccc2c(c1)COc1c3ccc(C(=O)O)cc3nn1-2`, the figure is 8.69 µM; as for `O=C(CSc1nnc(-c2cccnc2)n1-c1ccccc1)Nc1ccc2c(c1)OCO2` [MLS000050858], > 300 µM; as for `O=c1c2c3c(sc2nc2n1N=C(c1cccs1)CS2)CCCC3` [SMR000161302], > 300 µM. For `N#Cc1c2n(c3c(N)ncnc13)CCCCC2` [4-Amino-6,7,8,9-tetrahydro-5H-1,3,4b-triaza-benzo[a]azulene-10-carbonitrile] the value was > 300 µM. For the molecule `COc1ccc(Nc2nc(Nc3ccc(OC)cc3)nc(-n3[nH]c(=O)c(C)c3C)n2)cc1` [2-[4,6-bis(4-methoxyanilino)-1,3,5-triazin-2-yl]-3,4-dimethyl-1H-pyrazol-5-one], the EC50 was > 300 µM. Regarding `O=C(CSc1nnc(-c2ccncc2)n1-c1ccc(F)cc1)NC(=O)NCc1ccco1` [SMR000065428], the EC50 was > 300 µM.

For `CC(C)=CCc1c(O)cc(O)c2c1O[C@H](c1ccc(O)cc1)CC2=O`, the EC50 is > 300 µM. For `c1ccc(CSc2ccc3nnc(-c4cccnc4)n3n2)cc1` [MLS000724858], the 50% effective concentration (EC50) was > 300 µM. As for `CCn1c(SCC(=O)Nc2ccc(N(C)C)cc2)nnc1C1CC1` [SMR000601384], the figure is > 300 µM; as for `CC(C)Cc1ccccc1O` [SMR000639202], > 300 µM; as for `CCCn1cc(SCC(=O)NCc2ccco2)c2ccccc21` [MLS000095681], > 300 µM. Molecule `O=C(Nc1sccc1C(=O)N1CCOCC1)c1cccnc1` [N-[3-[4-morpholinyl(oxo)methyl]-2-thiophenyl]-3-pyridinecarboxamide] registered an EC50 of 29.2 µM.

With `Nc1nc(NCCCN2CCOCC2)nc(Nc2ccccc2F)c1[N+](=O)[O-]` [MLS000769816], the response was half-maximal at 1.27 µM (EC50). For `COc1ccc(OC)c(C(=O)c2coc3ccc(O)cc23)c1` [(2,5-dimethoxyphenyl)-(5-hydroxy-1-benzofuran-3-yl)methanone] the value was > 300 µM. Molecule `CN(C)Cc1c(C(=O)NN=Cc2ccncc2)nnn1-c1nonc1N` gave an EC50 of 6.17 µM. Regarding `Nc1nc(Nc2ccc(Cl)cc2)nc(NCCO)c1[N+](=O)[O-]` [2-[[6-amino-2-(4-chloroanilino)-5-nitropyrimidin-4-yl]amino]ethanol], the midpoint of the response, the EC50, lay at 1.7 µM.

On to `CCOC(=O)C1C(C)=Nc2ncnn2C1c1cccs1` (stereo not drawn), for which the EC50 came to 57.9 µM. `COC(=O)c1nnn(-c2nonc2N)c1CN1CCCC1` [MLS001202105]: the EC50 was > 300 µM. As for `COc1ccc(-c2nnc3ccc(SCc4ccccc4)nn23)cc1` [3-(4-methoxyphenyl)-6-(phenylmethylsulfanyl)-[1,2,4]triazolo[4,3-b]pyridazine], the figure is 31.7 µM; as for `CC1(C)CC(=O)C2C(=Nc3ccccc3NC2c2cccs2)C1` (stereo not drawn) [9,9-dimethyl-6-thiophen-2-yl-6,8,10,11-tetrahydro-5H-benzo[b][1,4]benzodiazepin-7-one], > 300 µM. For `C=CCNC(=O)c1ccc(OC)cc1OC` the value was > 300 µM.

In the case of `Cc1c(C(=O)OCc2ccccc2)nnn1-c1nonc1N` [(phenylmethyl) 1-(4-azanyl-1,2,5-oxadiazol-3-yl)-5-methyl-1,2,3-triazole-4-carboxylate], the EC50 was 7.34 µM. For the molecule `CCN(CC)Cc1c(C(=O)NN=Cc2ccco2)nnn1-c1nonc1N` [1-(4-amino-1,2,5-oxadiazol-3-yl)-5-(diethylaminomethyl)-N-(2-furanylmethylideneamino)-4-triazolecarboxamide], the midpoint of the response, the EC50, lay at 119 µM. On to `COc1cc(OC)cc(C(=O)NCC2CCCN(C(=O)c3csc(C)n3)C2)c1` (stereo not drawn) [MLS001072180], for which the EC50 was > 300 µM. With `Cc1cc(CNC(=O)c2cc(COc3c(F)cccc3F)on2)nn1C` [MLS000734261], the EC50 is > 300 µM. In the case of `O=C(O)c1cc(-c2ccc(C=NN3C(=O)C4C5C=CC(CC5)C4C3=O)o2)ccc1Cl` (stereo not drawn) [SMR000274176], the EC50 was > 300 µM. As for `CC(C(=O)NCC1CCCO1)n1cc([N+](=O)[O-])cn1` (stereo not drawn) [SMR000296777], the figure is > 300 µM; as for `CCC(=O)Nc1ccc(Nc2nc(C)c([N+](=O)[O-])c(Nc3ccc(NC(=O)CC)cc3)n2)cc1` [N,N'-[(6-methyl-5-nitro-2,4-pyrimidinediyl)bis(imino-4,1-phenylene)]dipropanamide], > 300 µM. As for `CN1CCc2c(sc3c2c(=O)n(-c2ccc(Cl)cc2)c2nncn32)C1` [SMR000042939], the figure is > 300 µM; as for `Cc1nn(C)c(C(=O)N2CCc3ccccc32)c1Br` [SMR000228334], > 300 µM; as for `COC(=O)c1nnn(-c2nonc2N)c1CSc1nnc(C)s1` [MLS000728193], 45.7 µM. As for `Cn1c(SCc2ccccc2C#N)nnc1-c1ccncc1` [2-(4-Methyl-5-pyridin-4-yl-4H-[1,2,4]triazol-3-ylsulfanylmethyl)-benzonitrile], the figure is > 300 µM; as for `O=C(Nc1ccccn1)c1ccc(C(=O)Nc2ccccn2)cc1` [SMR000502618], > 300 µM. In the case of `O=S(=O)(c1ccc(Br)cc1)N1CCN(c2cc(-c3ccccc3)nc3ncnn23)CC1` [7-[4-(4-bromophenyl)sulfonyl-1-piperazinyl]-5-phenyl-[1,2,4]triazolo[1,5-a]pyrimidine], the EC50 was > 300 µM.
